According to patent US20230047102A1, “PHARMACEUTICAL COMPOSITIONS COMPRISING N-[1-(5-CYANO-PYRIDIN-2-YLMETHYL)-1H-PYRAZOL-3-YL]-2-[4-(1-TRIFLUOROMETHYL-CYCLOPROPYL)-PHENYL]-ACETAMIDE” (Idorsia Pharmaceuticals Ltd, priority 2019, published 2023):

Legend:
[1] = Steady-state exposure with 60 mg once-daily dose in adults; assay type: in vivo, human; conditions: 60 mg once-daily dose at steady state in adults; 95% confidence interval 11.2, 16.7
Experimental: The starting dose of study treatment for the sentinel cohort (dose level 1) will be based on body weight categories (based on subjects' body weight on Day 1), as detailed in the table below. This study intends to target exposures equivalent to those observed with a 60 mg once-daily dose at steady state in adults (area under the concentration versus time curve during 1 dosing interval [AUCT] of 13.7 μgxh/mL [95% confidence interval (CD: 11.2, 16.7 μgxh/m14. Based on the exposure data obtained from the sentinel cohort, the doses may be adjusted if required to achieve the targeted exposure in the main cohort.

[2] = subject to certain variations of this value found in the literature; cited from earlier work

area under the concentration versus time curve during 1 dosing interval [AUCT] [1] [μgxh/mL]	Compound	hydrophilic-lipophilic balance (HLB) value [2]
13.7	N#Cc1ccc(Cn2ccc(NC(=O)Cc3ccc(C4(C(F)(F)F)CC4)cc3)n2)nc1 [NBI-827104, N-[1-(5-cyano-pyridin-2-ylmethyl)-1H-pyrazol-3-yl]-2-[4-(1-trifluoromethyl-cyclopropyl)-phenyl]-acetamide]	–
–	CCCCCCCCCCCCOS(=O)(=O)[O-].[Na+] [SLS, Sodium lauryl sulfate]	about 40
–	Poloxamer 188	about 29
